Experimental data: patent US6924309B2 (Children, Youth and Women's Health Service Incorporated, priority 1999, dated 2005)
Where two headings read alike, the source gives them in different places.

Key:
[1] = Petri-dish thin film autoxidation of arachidonic acid with thia fatty acids and sulfides (HPLC); conditions: for Arachidonic acid (%) recovered following autoxidation: arachidonic acid alone
Description: A stock solution in dichioromethane (2 ml) containing arachidonic acid 1 (18 mg) and 3-[(3Z,6Z)-nona-3,6dienylthio]propionic acid 106 (18 mg) was prepared with lauric acid (18 mg) as an internal standard. Samples of the stock solution (100 μl) were added to glass Petri-dishes followed by ethanol (400 μl). After evaporation of the solvent, a well-distributed thin film was formed on each Petri-dish. The Petri-dishes were placed in a desiccator, which was then evacuated, filled with oxygen and stored in the darkness. Dishes were removed from the desiccator after 1, 2, 3, 5 and 7 days. The mixture on each dish was redissolved in diethyl ether and transferred to a 2 ml vial. After evaporation of the solvent, the residue was dissolved in the HPLC mobile phase (100 μl) and 10% of the solution was analysed by HPLC using a reverse phase column (octadecylsilane) (4.6 mm×250 mm, 3 μm) and a refractive index detector.
Autoxidation of arachidonic acid was conducted in the presence of compound 19 and lauric acid. Stock solutions of arachidonic acid, compound 19 and lauric acid in dichloromethane with equal concentrations were added to a 25 ml round-bottomed flask, and the solvent was evaporated to leave a thin film on the internal surface of the flask. The flask was then filled with oxygen and kept in the dark. The percentages of arachidonic acid and compound 19 remaining after 7 days were measured by HPLC. The same assay was carried out simultaneously with several flasks but the results were not reproducible. The variation was attributed to differences in oxygen concentration and the surface area of the thin films formed in the flasks. Therefore, in order to establish a reproducible assay for the analysis of the autoxidation of arachidonic acid, Petri-dishes with uniform size (80 mm in diameter) were used instead of flasks for thin film formation and the oxidation was carried out by placing the Petri-dishes in a dessicator filled with oxygen. To assess this method, thin firms of arachidonic acid with lauric acid as a standard were prepared on six Petri-dishes using identical treatment, and then subjected to oxidation in the same dessicator filled with oxygen. After 24 h, the percentage of arachidonic acid recovered following autoxidation in each Petri-dish was determined by HPLC. […] The advantage of using a Petri-dish over a flask is that the thin films on each Petri-dish are spread over the same area, and each Petri-dish is exposed to oxygen to the same extent.
Using the Petri-dish assay method, the effects of the thia PUFAs and sulfides 106 and 108-111, along with compounds 18, 19 and 3-[(Z,Z,Z)-(octadeca-9,12,15-trienylthio)] propionic acid 112 which were available in the laboratory, on the autoxidation of arachidonic acid, were examined. In addition, the stability of these compounds in the presence of arachidonic acid was also investigated. Arachidonic acid and lauric acid as a standard were mixed with each sulfur compound at different ratios and the mixtures were subjected to thin film autoxidation. The mixtures were analysed by HPLC after 1,2,3,5 and 7 days.

[2] = Thin film autoxidation of arachidonic acid with compounds 16-19 (HPLC)
Source text: Subsequently, the autoxidation of compounds 16-19 and their effects on the autoxidation of arachidonic acid were investigated. In these experiments, a thin film assay method was employed. For each reaction, arachidonic acid was mixed with one of the synthetic compounds 16, 17, 18 or 19 at 1:1 ratio with or without the radical initiator, azobisisobutyronitrile (AIBN). A reverse phase HPLC method was used to simultaneously measure the relative amounts of arachidonic acid and the synthetic compounds 16, 17, 18 or 19 recovered following 60 or 70 hours or 7 days of thin film autoxidation.

[3] = 1:1 ratio with arachidonic acid
[4] = compound at one-tenth that of arachidonic acid
[5] = ratio arachidonic acid:compound 1:1, 1 day
[6] = ratio arachidonic acid:compound 1:1, 2 days
[7] = ratio arachidonic acid:compound 1:1, 3 days
[8] = ratio arachidonic acid:compound 1:1, 5 days
[9] = ratio arachidonic acid:compound 1:1, 7 days
[10] = ratio arachidonic acid:compound 2:1, 1 day
[11] = ratio arachidonic acid:compound 2:1, 2 days
[12] = ratio arachidonic acid:compound 2:1, 3 days
[13] = ratio arachidonic acid:compound 2:1, 5 days
[14] = ratio arachidonic acid:compound 2:1, 7 days
[15] = ratio arachidonic acid:compound 10:1, 1 day
[16] = ratio arachidonic acid:compound 10:1, 2 days
[17] = ratio arachidonic acid:compound 10:1, 3 days
[18] = ratio arachidonic acid:compound 10:1, 5 days
[19] = ratio arachidonic acid:compound 10:1, 7 days

Structure (SMILES) | Antioxidant effect on autoxidation of arachidonic acid (in words) [1, 3] | Antioxidant effect on autoxidation of arachidonic acid (in words) [1, 4] | Arachidonic acid (%) recovered following autoxidation in the presence of the compound [1, 5] [%] | Compound (%) recovered following autoxidation with arachidonic acid [1, 5] [%] | Arachidonic acid (%) recovered following autoxidation in the presence of the compound [1, 6] [%] | Compound (%) recovered following autoxidation with arachidonic acid [1, 6] [%] | Arachidonic acid (%) recovered following autoxidation in the presence of the compound [1, 7] [%] | Compound (%) recovered following autoxidation with arachidonic acid [1, 7] [%] | Arachidonic acid (%) recovered following autoxidation in the presence of the compound [1, 8] [%] | Compound (%) recovered following autoxidation with arachidonic acid [1, 8] [%] | Arachidonic acid (%) recovered following autoxidation in the presence of the compound [1, 9] [%] | Compound (%) recovered following autoxidation with arachidonic acid [1, 9] [%] | Arachidonic acid (%) recovered following autoxidation in the presence of the compound [1, 15] [%] | Compound (%) recovered following autoxidation with arachidonic acid [1, 15] [%] | Arachidonic acid (%) recovered following autoxidation in the presence of the compound [1, 16] [%] | Compound (%) recovered following autoxidation with arachidonic acid [1, 16] [%] | Arachidonic acid (%) recovered following autoxidation in the presence of the compound [1, 17] [%] | Arachidonic acid (%) recovered following autoxidation in the presence of the compound [1, 18] [%] | Arachidonic acid (%) recovered following autoxidation in the presence of the compound [1, 19] [%] | also measured
CCCCC/C=C\C/C=C\C/C=C\C/C=C\CCCC(=O)O [Arachidonic acid, arachidonic acid, reference compound] |  |  |  |  |  |  |  |  |  |  |  |  |  |  |  |  |  |  |  | Arachidonic acid (%) recovered following autoxidation ([1]; 1 day): 91%; Arachidonic acid (%) recovered following autoxidation ([1]; 2 days): 20%; Arachidonic acid (%) recovered following autoxidation ([1]; 3 days): 16%; Arachidonic acid (%) recovered following autoxidation ([1]; 5 days): 12%
CCCCC/C=C\C/C=C\C/C=C\CCCCCOCC(=O)O [Compound 16, (Z,Z,Z)-(octadeca-6,9,12-trienyloxy) acetic acid] |  |  |  |  |  |  |  |  |  |  |  |  |  |  |  |  |  |  |  | Percentage of arachidonic acid recovered in the presence of the compound ([2]; ratio 1:1, 10% AIBN 60 h): 17%; Percentage of compound recovered (with arachidonic acid) ([2]; ratio 1:1, 10% AIBN 60 h): 11%; Percentage of arachidonic acid recovered in the presence of the compound ([2]; ratio 1:1, no additive 70 h): 97%; Percentage of compound recovered (with arachidonic acid) ([2]; ratio 1:1, no additive 70 h): 88%; Percentage of arachidonic acid recovered in the presence of the compound ([2]; ratio 1:1, no additive 7 day): 23%; Percentage of compound recovered (with arachidonic acid) ([2]; ratio 1:1, no additive 7 day): 27%
CC/C=C\C/C=C\C/C=C\CCCCCCCCOCC(=O)O [Compound 17, (Z,Z,Z)-(octadeca-9,12,15-trienyloxy) acetic acid] |  |  |  |  |  |  |  |  |  |  |  |  |  |  |  |  |  |  |  | Percentage of arachidonic acid recovered in the presence of the compound ([2]; ratio 1:1, 10% AIBN 60 h): 44%; Percentage of compound recovered (with arachidonic acid) ([2]; ratio 1:1, 10% AIBN 60 h): 49%; Percentage of arachidonic acid recovered in the presence of the compound ([2]; ratio 1:1, no additive 70 h): 92%; Percentage of compound recovered (with arachidonic acid) ([2]; ratio 1:1, no additive 70 h): 102%; Percentage of arachidonic acid recovered in the presence of the compound ([2]; ratio 1:1, no additive 7 day): 30%; Percentage of compound recovered (with arachidonic acid) ([2]; ratio 1:1, no additive 7 day): 41%; Autoxidation of arachidonic acid in the presence of the compound (in words) ([2]; ratio 1:1, with or without AIBN): substantial degree of autoxidation
CC/C=C\C/C=C\CCSCCC(=O)O [Compound 106] | almost complete prevention of autoxidation | very slow over the first 3 days | 99 | 98 | 98 | 96 | 99 | 98 | 100 | 97 | 101 | 98 | 101 | 94 | 101 | 84 | 99 | 79 | 16 | Antioxidant effect on autoxidation of arachidonic acid (in words) [1]: effective antioxidants; Arachidonic acid (%) recovered following autoxidation in the presence of the compound [1, 10]: 98%; Compound (%) recovered following autoxidation with arachidonic acid [1, 10]: 97%; Arachidonic acid (%) recovered following autoxidation in the presence of the compound [1, 11]: 99%; Compound (%) recovered following autoxidation with arachidonic acid [1, 11]: 98%; Arachidonic acid (%) recovered following autoxidation in the presence of the compound [1, 12]: 98%; Compound (%) recovered following autoxidation with arachidonic acid [1, 12]: 97%; Arachidonic acid (%) recovered following autoxidation in the presence of the compound [1, 13]: 99%; Compound (%) recovered following autoxidation with arachidonic acid [1, 13]: 97%; Arachidonic acid (%) recovered following autoxidation in the presence of the compound [1, 14]: 99%; Compound (%) recovered following autoxidation with arachidonic acid [1, 14]: 100%; Compound (%) recovered following autoxidation with arachidonic acid [1, 17]: 59%
CCCCC/C=C\C/C=C\C/C=C\C/C=C\CCCCSCCC [Compound 110, propyl(all-Z)-eicosa-5,8,11,14-tetraenylpropyl sulfide] | effectively inhibit | still effective antioxidiants |  |  |  |  | 100 | 99 |  |  | 100 | 100 | 97 | 85 | 89 | 22 | 67 | 24 | 10 | 
CCCCCCCCCCCCCCSCCC [Compound 111, propyltetradecyl sulfide] | effectively inhibit | still effective antioxidiants | 100 | 101 | 98 | 91 | 98 | 92 | 98 | 92 | 97 | 90 | 99 | 81 | 99 | 63 | 97 | 68 | 17 | Compound (%) recovered following autoxidation with arachidonic acid [1, 17]: 38%
CC/C=C\C/C=C\C/C=C\CCCCCCCCSCCC(=O)O [Compound 112, 3-[(Z,Z,Z)-(octadeca-9,12,15-trienylthio)]-propionic acid] | effective as an antioxidant | less effective than either compound 19 or 106 | 100 | 100 | 99 | 98 | 98 | 97 | 99 | 97 | 93 | 86 | 82 | 25 | 33 |  | 17 | 4 |  | Antioxidant effect on autoxidation of arachidonic acid (in words) [1]: effective antioxidants
